The values below come from patent publication US9932340B2, “Substituted indoles” (AbbVie Inc., priority 2014, dated 2018).

A word on the IC50: it is the concentration at which inhibition is half-maximal.

Molecules are shown by their SMILES.

Sequence of SUV420H1 enzyme (Q4FZB7 whole entry): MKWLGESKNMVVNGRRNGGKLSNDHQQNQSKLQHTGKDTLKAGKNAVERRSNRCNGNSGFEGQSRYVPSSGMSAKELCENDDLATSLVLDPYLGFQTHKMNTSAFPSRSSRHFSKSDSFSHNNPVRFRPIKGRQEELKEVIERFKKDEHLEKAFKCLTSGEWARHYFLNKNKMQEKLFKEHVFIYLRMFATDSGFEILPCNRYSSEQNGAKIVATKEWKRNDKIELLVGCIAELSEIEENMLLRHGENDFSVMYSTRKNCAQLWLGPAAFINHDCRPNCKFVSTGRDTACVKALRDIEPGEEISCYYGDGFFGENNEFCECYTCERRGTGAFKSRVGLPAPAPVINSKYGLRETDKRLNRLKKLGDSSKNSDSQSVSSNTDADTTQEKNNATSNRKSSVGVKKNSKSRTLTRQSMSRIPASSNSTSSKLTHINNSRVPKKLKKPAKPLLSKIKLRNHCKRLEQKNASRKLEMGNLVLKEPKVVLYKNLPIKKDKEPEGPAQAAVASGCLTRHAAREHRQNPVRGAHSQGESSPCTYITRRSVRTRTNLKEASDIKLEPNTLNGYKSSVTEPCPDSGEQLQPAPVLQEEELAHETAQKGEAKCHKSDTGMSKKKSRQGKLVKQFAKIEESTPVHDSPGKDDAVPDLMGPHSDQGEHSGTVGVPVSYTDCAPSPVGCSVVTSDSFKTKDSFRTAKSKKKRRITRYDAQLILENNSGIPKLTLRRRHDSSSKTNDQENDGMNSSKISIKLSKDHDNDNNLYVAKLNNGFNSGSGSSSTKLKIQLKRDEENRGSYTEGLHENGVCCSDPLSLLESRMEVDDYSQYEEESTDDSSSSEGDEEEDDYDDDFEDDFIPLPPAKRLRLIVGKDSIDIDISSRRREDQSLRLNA

The experiment deals with SUV420H1 enzyme (Homo sapiens, UniProt Q4FZB7). The experiment is described as follows: TR-FRET SAH SUV420H1 enzyme inhibition assay. The format is biochemical. The following applies: Histone Peptide H4(8-30)me1 and SAM, overnight at room temp, TR-FRET detection of SAH, read-out: TR-FRET SAH_SUV420H1 IC50. As for the experimental part:
Test compounds were dispensed by a Labcyte Echo in 384-well low volume assay plates with 3-fold serial dilutions from 50 μM to 0.00075 μM. 5 μL of SUV420H1 enzyme (Abbvie) at 90 nM was added to all wells except the no enzyme control wells, and incubated for 30 minutes at room temp before 5 μL of Histone Peptide H4(8-30)me1 (Anaspec) at 5 nM and SAM at 4 nM was added to all wells. The plates were incubated in a humidified chamber overnight at room temp and then 10 μL of the detection reagent that contained RIPA buffer (50 mM Tris-HCl, pH 8.0, 150 mM sodium chloride, 1.0% Igepal CA-630 (NP-40), 0.5% sodium deoxycholate and 0.1% sodium dodecyl sulfate) (Sigma) with 2 nM of Terbium chelate anti S-adenosyl-L-homocysteine (SAH) (Abbvie) antibody and Oregon Green labeled SAH at 4 nM was added. The plates were further incubated for 4 hours at room temperature. The plates were read in a Perkin Elmer Envision using a TR-FRET protocol with Excitation set at 335 nm and Emission at 520 and 495 nm. To generate dose response curves the data is normalized to percent inhibition by setting the average of the plus and minus enzyme control wells to 0% and 100% inhibition respectively. The IC50 values for the compounds are generated by fitting the normalized data with Accelrys Assay Explorer 3.3 to a sigmoidal curve model using […] regression, Y=(100*x^n)/(K^n+x^n), where Y is the measured response, x is the compound concentration, n is the Hill Slope and K is the IC50 and the lower and higher asymptotes are constrained to 0 and 100 respectively.
(In general: TR-FRET usually uses a lanthanide donor and a delayed reading to cut background.)
Regarding `COC(=O)c1ccc(-c2cc(Cn3cnc4c(N)ncnc43)c3[nH]c(CN)cc3c2)cc1` [Example 44, methyl 4-{2-(aminomethyl)-7-[(6-amino-9H-purin-9-yl)methyl]-1H-indol-5-yl}benzoate], the IC50 was determined as 0.56 µM. In the case of `Cc1noc(C)c1C(=O)NCc1cc2cc(-c3ccc(CC#N)cc3)cc(Cn3cnc4c(N)ncnc43)c2[nH]1` [Example 175, N-({7-[(6-amino-9H-purin-9-yl)methyl]-5-[4-(cyanomethyl)phenyl]-1H-indol-2-yl}methyl)-3,5-dimethyl-1,2-oxazole-4-carboxamide], the IC50 was determined as 0.0828 µM. In the case of `N#Cc1ccc(F)c(CNCc2cc3cc(Cl)cc(Cn4cnc5c(N)ncnc54)c3[nH]2)c1` [Example 270, 3-{[({7-[(6-amino-9H-purin-9-yl)methyl]-5-chloro-1H-indol-2-yl}methyl)amino]methyl}-4-fluorobenzonitrile] it was 3.75 µM; in that of `Cn1cncc1C(=O)NCc1cc2cc(Cl)cc(Cn3cnc4c(N)ncnc43)c2[nH]1` [Example 153, N-({7-[(6-amino-9H-purin-9-yl)methyl]-5-chloro-1H-indol-2-yl}methyl)-1-methyl-1H-imidazole-5-carboxamide], 4.4 µM.

Turning to `COc1ccsc1C(=O)NCc1cc2cc(Cl)cc(Cn3cnc4c(N)ncnc43)c2[nH]1` [Example 159, N-({7-[(6-amino-9H-purin-9-yl)methyl]-5-chloro-1H-indol-2-yl}methyl)-3-methoxythiophene-2-carboxamide], the IC50 was over 50 µM. Regarding `Nc1ncnc2c1ncn2Cc1cc(Cl)cc2cc(CNC(=O)c3ccccn3)[nH]c12` [Example 195, N-({7-[(6-amino-9H-purin-9-yl)methyl]-5-chloro-1H-indol-2-yl}methyl)pyridine-2-carboxamide], the half-maximal inhibitory concentration (IC50) is over 50 µM. On to `Cc1[nH]c2ccc(C(=O)NCc3cc4cc(Cl)cc(Cn5cnc6c(N)ncnc65)c4[nH]3)cc2c1C` [Example 375, N-({7-[(6-amino-9H-purin-9-yl)methyl]-5-chloro-1H-indol-2-yl}methyl)-2,3-dimethyl-1H-indole-5-carboxamide], for which the IC50 was determined as 12.4 µM.

Turning to `NCc1cc2cc(-c3cccnc3)cc(Cn3cnc4c(N)ncnc43)c2[nH]1` [Example 20, 9-{[2-(aminomethyl)-5-(pyridin-3-yl)-1H-indol-7-yl]methyl}-9H-purin-6-amine], the IC50 is 0.866 µM. `Nc1ncnc2c1ncn2Cc1cc(Cl)cc2cc(CNC(=O)Cc3cccc(F)c3)[nH]c12` [Example 255, N-({7-[(6-amino-9H-purin-9-yl)methyl]-5-chloro-1H-indol-2-yl}methyl)-2-(3-fluorophenyl)acetamide]: the IC50 came out at 15.5 µM.

Regarding `Nc1ncnc2c1ncn2Cc1cc(Cl)cc2cc(CNCc3cccc(CN4CCCCC4)c3)[nH]c12` [Example 323, 9-{[5-chloro-2-({[3-(piperidin-1-ylmethyl)benzyl]amino}methyl)-1H-indol-7-yl]methyl}-9H-purin-6-amine], the IC50 stood at 0.345 µM. For the compound `Nc1ncnc2c1ncn2Cc1cc(Cl)cc2cc(CNC(=O)Cc3ccccc3Cl)[nH]c12` [Example 253, N-({7-[(6-amino-9H-purin-9-yl)methyl]-5-chloro-1H-indol-2-yl}methyl)-2-(2-chlorophenyl)acetamide], the IC50 is 36.1 µM. Regarding `CS(=O)(=O)c1ccc(C(=O)NCc2cc3cc(Cl)cc(Cn4cnc5c(N)ncnc54)c3[nH]2)c(Cl)c1` [Example 266, N-({7-[(6-amino-9H-purin-9-yl)methyl]-5-chloro-1H-indol-2-yl}methyl)-2-chloro-4-(methylsulfonyl)benzamide], the IC50 turned out to be 0.911 µM. To `Nc1ncnc2c1ncn2Cc1cc(Cl)cc2cc(CNC(=O)c3ccc[nH]c3=O)[nH]c12` [Example 198, N-({7-[(6-amino-9H-purin-9-yl)methyl]-5-chloro-1H-indol-2-yl}methyl)-2-oxo-1,2-dihydropyridine-3-carboxamide] belongs 12.6 µM. As for `Cc1noc(C)c1C(=O)NCc1cc2cc(-c3ccc(S(C)(=O)=O)cc3)cc(Cn3cnc4c(N)ncnc43)c2[nH]1` [Example 170, N-({7-[(6-amino-9H-purin-9-yl)methyl]-5-[4-(methylsulfonyl)phenyl]-1H-indol-2-yl}methyl)-3,5-dimethyl-1,2-oxazole-4-carboxamide], the IC50 worked out at 0.208 µM.

For `NCc1cc2c(-c3ccccc3)ccc(Cn3cnc4c(N)ncnc43)c2[nH]1` [Example 70, 9-{[2-(aminomethyl)-4-phenyl-1H-indol-7-yl]methyl}-9H-purin-6-amine], the IC50 amounted to 1 µM. To `Nc1ncnc2c1ncn2Cc1cc(Cl)cc2cc(CNC(=O)c3ccc4scnc4c3)[nH]c12` [Example 336, N-({7-[(6-amino-9H-purin-9-yl)methyl]-5-chloro-1H-indol-2-yl}methyl)-1,3-benzothiazole-5-carboxamide] belongs 0.431 µM; to `CS(=O)(=O)Nc1cccc(-c2cc(Cn3cnc4c(N)ncnc43)c3[nH]c(CN)cc3c2)c1` [Example 42, N-(3-{2-(aminomethyl)-7-[(6-amino-9H-purin-9-yl)methyl]-1H-indol-5-yl}phenyl)methanesulfonamide], 0.45 µM; to `CC(C)(C)OC(=O)N1CC=C(c2cc(Cn3cnc4c(N)ncnc43)c3[nH]c(CNC(=O)c4ccc(C#N)cc4F)cc3c2)CC1` [Example 289, tert-butyl 4-(7-[(6-amino-9H-purin-9-yl)methyl]-2-{[(4-cyano-2-fluorobenzoyl)amino]methyl}-1H-indol-5-yl)-3,6-dihydropyridine-1(2H)-carboxylate], 0.0613 µM.

Regarding `Cc1oncc1C(=O)NCc1cc2cc(Cl)cc(Cn3cnc4c(N)ncnc43)c2[nH]1` [Example 149, N-({7-[(6-amino-9H-purin-9-yl)methyl]-5-chloro-1H-indol-2-yl}methyl)-5-methyl-1,2-oxazole-4-carboxamide], the IC50 is 2.04 µM. In the case of `Nc1ncnc2c1ncn2Cc1cc(Cl)cc2cc(CNCc3cccc(Cl)c3)[nH]c12` [Example 209, 9-[(5-chloro-2-{[(3-chlorobenzyl)amino]methyl}-1H-indol-7-yl)methyl]-9H-purin-6-amine] it was 1.92 µM; in that of `CC(C)CC(=O)NCc1cc2cc(Cl)cc(Cn3cnc4c(N)ncnc43)c2[nH]1` [Example 102, N-({7-[(6-amino-9H-purin-9-yl)methyl]-5-chloro-1H-indol-2-yl}methyl)-3-methylbutanamide], 6.36 µM; in that of `Cc1noc(C)c1C(=O)NCc1cc2cc(-c3cccc(C(=O)N(C)C)c3)cc(Cn3cnc4c(N)ncnc43)c2[nH]1` [Example 177, N-({7-[(6-amino-9H-purin-9-yl)methyl]-5-[3-(dimethylcarbamoyl)phenyl]-1H-indol-2-yl}methyl)-3,5-dimethyl-1,2-oxazole-4-carboxamide], 0.106 µM. On to `CCN(CC)Cc1cc2cc(Cl)cc(Cn3cnc4c(N)ncnc43)c2[nH]1` [Example 97, 9-({5-chloro-2-[(diethylamino)methyl]-1H-indol-7-yl}methyl)-9H-purin-6-amine], for which the IC50 stood at 11.4 µM. In the case of `Cc1cc(C#N)ccc1C(=O)NCc1cc2cc(Cl)cc(Cn3cnc4c(N)ncnc43)c2[nH]1` [Example 303, N-({7-[(6-amino-9H-purin-9-yl)methyl]-5-chloro-1H-indol-2-yl}methyl)-4-cyano-2-methylbenzamide] it was 0.0723 µM; in that of `CC1CCCC(C(=O)NCc2cc3cc(Cl)cc(Cn4cnc5c(N)ncnc54)c3[nH]2)C1` (stereo not drawn) [Example 131, N-({7-[(6-amino-9H-purin-9-yl)methyl]-5-chloro-1H-indol-2-yl}methyl)-3-methylcyclohexanecarboxamide], 3.23 µM; in that of `Nc1ncnc2c1ncn2Cc1cc(Cl)cc2cc(CNC(=O)c3nc4[nH]ccc4cc3Cl)[nH]c12` [Example 349, N-({7-[(6-amino-9H-purin-9-yl)methyl]-5-chloro-1H-indol-2-yl}methyl)-5-chloro-1H-pyrrolo[2,3-b]pyridine-6-carboxamide], 8.78 µM. In the case of `NCc1cc2c(-c3ccccc3Cl)ccc(Cn3cnc4c(N)ncnc43)c2[nH]1` [Example 72, 9-{[2-(aminomethyl)-4-(2-chlorophenyl)-1H-indol-7-yl]methyl}-9H-purin-6-amine] it was 1.81 µM. In the case of `Nc1ncnc2c1ncn2Cc1cc(Cl)cc2cc(CNC(=O)c3ccn[nH]3)[nH]c12` [Example 142, N-({7-[(6-amino-9H-purin-9-yl)methyl]-5-chloro-1H-indol-2-yl}methyl)-1H-pyrazole-5-carboxamide] it was 9.48 µM; in that of `COc1ccccc1C(=O)NCc1cc2cc(Cl)cc(Cn3cnc4c(N)ncnc43)c2[nH]1` [Example 260, N-({7-[(6-amino-9H-purin-9-yl)methyl]-5-chloro-1H-indol-2-yl}methyl)-2-methoxybenzamide], 3.55 µM; in that of `Nc1ncnc2c1ncn2Cc1cc(Cl)cc2cc(CNC(=O)C3CCCC3)[nH]c12` [Example 119, N-({7-[(6-amino-9H-purin-9-yl)methyl]-5-chloro-1H-indol-2-yl}methyl)cyclopentanecarboxamide], 6.41 µM.
